From publication PMC6514962, “The Impact of O-Glycosylation on Cyanidin Interaction with RBCs and HMEC-1 Cells—Structure–Activity Relationships” (International Journal of Molecular Sciences, 2019)

What was measured:
[1] = system: HMEC-1 cells; assay: AAPH-stimulated intracellular ROS generation, H2DCF-DA assay; assay type: cell-based, human; settings: for inhibitory activity on AAPH-induced intracellular ROS: HMEC-1, throughout the used range of concentrations (50-100 µM); for intracellular ROS level in comparison with control AAPH-oxidized cells: HMEC-1 pretreated 24 h with 50 to 75 µM, then AAPH 24 h
Procedure: (§1) The impact of investigated compounds on the level of intracellular reactive oxygen species and their ability to inhibit AAPH-stimulated intracellular ROS generation were assessed using a H2DCF-DA probe. Non-fluorescent H2DCF-DA is hydrolyzed intracellularly to form 2′,7′-dichlorodihydrofluorescein, which is oxidized by reactive oxygen species to the fluorescent 2′,7′-dichlorofluorescein. ROS production was estimated in HMEC-1 cells seeded on 96-well plates (5 × 10^3/well) and cultured for 12 to 24 h. After that time, the compounds were added at appropriate concentrations. The incubation was continued for another 24 h and 48 h at 37 °C under 5% CO2. In the case of AAPH-simulated ROS generation, the cells were incubated with extracts for 24 h. After incubation, the AAPH dissolved in culture medium was added to each well at the final concentration of 7.5 mM and incubated for the next 24 h. After that time, the cell monolayers were rinsed with HBSS containing 1% albumin and 5 µM of the fluorescence probe, 2′,7′-dichlorodihydrofluorescein diacetate (H2DCF-DA), was added. Immediately and after 0.5 h, 1 h, and 2 h incubation in the dark in standard conditions, the fluorescence was measured at λex = 485 nm and λem = 538 nm.
(§2) In the next step, DNA content was determined. For this purpose, after measurements, the cells were frozen at −70 °C. Next, the cells were thawed and re-frozen after the addition of […] of distilled water/well. Then, the cells were thawed again. After that, 5 µM of RNase was added to each well and incubated for 30 min in the dark at 37 °C. Next, 50 µL of 2.5 µM propidium iodide was added to the cells and incubated for 5 min in the same conditions. The fluorescence intensity of PI was measured at λex = 355 nm and λem = 620 nm. The rate of ROS generation was calculated according to the formula: (1) Rate of ROS=IFe1/IFe2/IFc1/IFc2⋅100% where IFe1 and IFe2 are fluorescence intensities of H2DCF-DA and PI in compound-modified or compound-modified and AAPH-oxidized cells, and IFc1 and IFc2 are fluorescence intensities of H2DCF-DA and PI in control or AAPH-oxidized control cells.

[2] = viability of HMEC-1 cells, XTT and Hoechst 33342 assays; assay type: cell-based, human; settings: human, HMEC-1 cells, HMEC-1, 100 µM, % of control, read-out: cell viability (XTT and Hoechst assay)
Procedure: (§3) The effect of compounds on the viability of HMEC-1 cells was assessed by XTT (2,3-bis-(2-methoxy-4-nitro-5-sulfophenyl)-2H-tetrazolium-5-carboxanilide) and Hoechst 33342 assays. Briefly, 5 × 10^3 cells in 100 µL of the appropriate growth medium were plated in 96-well flat bottom clear microplates and cultured for 24 h at 37 °C in a humidified 5% CO2 incubator to ensure their logarithmic growth. […] A corresponding volume of 0.5% ethanol was added to the control wells. In parallel experiments, some of the cells were additionally incubated with doxorubicin in a concentration of 0.5 µM (a cytotoxic compound usually used as an anticancer drug). After incubation, the medium in the wells was aspirated, the cell monolayers were rinsed twice with pre-warmed (37 °C) PBS, and the cells were allowed to grow for an additional 48 h. After incubation, during the XTT assay, medium was removed by aspiration and 50 µL of XTT/PMS solution (10 µL of 10 mM PMS + 4 mL of 4 mg/mL XTT solution) was added to cells. Cells were incubated in the dark for 2 h (37 °C, 5% CO2). After incubation, the absorbance of the samples was read at 450 nm and 690 nm using an Epoch Microplate Spectrophotometer, BioTek Instruments, Inc., Winooski, Vermont, USA. The fraction of surviving treated cells was presented as a percentage of viable control (untreated) cells taken as 100%. In the Hoechst test, after incubation of cells with cyanidin and its glycosides, the medium was removed and the cells were washed twice with HBSS buffer containing 1% bovine serum albumin and frozen at −70 °C. Next, the cells were thawed at room temperature (RT) and re-frozen after the addition of […] of distilled water. After thawing the plates at room temperature, 100 µL of HVAB solution (0.5% Hoechst in TNE solution containing 2 M NaCl, 1 mM EDTA, 10 mM Tris-HCl, pH 7.4) were added to each well. Next, cells were incubated for 15 min in the dark at 37 °C, mixed, and the fluorescence intensity of the probe was measured at 355 and 460 nm for excitation and emission, respectively (Fluoroskan Ascent FL, Thermo Scientific, Waltham, MA, USA). Cell viability was calculated as the ratio of the fluorescence intensity of the Hoechst 33342 probe for compound-modified to -unmodified cells and expressed as a percentage.

[3] = system: HMEC-1 cells; assay: as above; assay type: cell-based, human; settings: 48 h; for viability of endothelial cells compared with the control: HMEC-1, 100 µM, p < 0.01, both methods; for cytotoxicity: HMEC-1, 10-100 µM
Procedure: as §3

[4] = system: HMEC-1 cells; assay: intracellular ROS generation in non-oxidized cells, H2DCF-DA assay; assay type: cell-based, human
Procedure: as §1, §2

[5] = system: erythrocytes (RBCs); assay: protection of erythrocytes against AAPH-induced hemolysis; assay type: cell-based, pig; settings: for level of RBCs' protection relative to CR and CDG: compared with CR and CDG
Procedure: Upon removal from plasma, the erythrocytes (RBCs) were washed four times in phosphate solution (pH 7.4) and then incubated in the same solution, but containing appropriate amounts of the compounds studied. The modification was conducted at 37 °C for 1 h, each 1 mL sample containing an RBC suspension of 1.2% hematocrit and 1 to 100 µM of compounds, stirred continuously. After the modification, 2 mL of phosphate buffer were added and samples were centrifuged, and the supernatant assayed for hemoglobin content using a spectrophotometer (Specord 40, Analytik Jena) at the 540 nm wavelength. To test the effect of compounds on hemolysis inducted by AAPH, RBCs were pre-incubated with varying concentrations of compounds at 37 °C for 1 h. Hemolysis of RBCs was carried out by mixing 3% suspension of RBCs (unmodified or modified by 2 to 20 µM of the compounds) in phosphate buffer with AAPH solution (final concentration 120 mM). This reaction mixture was incubated for 3 h at 37 °C. After incubation, samples were centrifuged for 15 min (2000× g, RT). The extent of hemolysis was determined spectrophotometrically by measuring the absorbance of the supernatant at 540 nm. Hemoglobin concentration in the supernatant, expressed as a percentage of the hemoglobin concentration in the supernatant of totally hemolyzed cells, was assumed as the measure of the extent of hemolysis.

[6] = system: erythrocytes (RBCs); assay: SEM assay of the shapes of erythrocytes; assay type: cell-based, pig; settings: 100 µM, 1 h
Procedure: The effect of compounds on the shape of erythrocytes was investigated using a scanning electron microscope (SEM). […] Hematocrit concentration of the erythrocytes in the modification solution was 2%, the modification lasting 1 h at 37 °C. After modification, the erythrocytes where fixed for 48 h in a 2.5% solution of glutaraldehyde. After that, the preparations were washed in phosphate buffer for 20 min, and then the material was dehydrated in a rising series of acetone concentrations (30%, 50%, 60%, 70%, 80%, 90%, and 100%). Each sample was washed for 15 min in an appropriate concentration, the material remaining in pure acetone for 30 min. Next, the erythrocytes were dried for 12 h at room temperature. Erythrocytes thus prepared were deposited on object stages and subjected to x-ray microanalysis by means of an x-ray analyzer, Bruker AXS Quantax, collaborating with the ESPRIT ver. 1.8.2. software. Next, the samples were coated with gold using a Scancoat 6 (Edwards, London) sprinkler. The material ultrastructure was analyzed using a scanning microscope (EVO LS15 ZEISS) with an SE1 detector, under high vacuum and accelerating voltage, acceleration voltage (EHT) = 20 kV. Individual forms of erythrocyte cells were ascribed morphological indices according to the Bessis scale, which for stomatocytes assume negative values from −1 to −4, and for echinocytes from 1 to 4.

[7] = system: MCF-7, HuH-7, HepG2, Caco-2, and HUVEC; set-up: method as in doi:10.3136/fstr.17.515; settings: cited from earlier work
[8] = system: renal cell carcinoma; set-up: method as in PMID 29742507; settings: cited from earlier work
[9] = system: MCF-7 breast cancer cells; settings: cited from earlier work
[10] = system: RAW 264.7 cells; set-up: method as in doi:10.1007/s10068-014-0279-x; settings: 100 to 200 µg/mL; cited from earlier work
[11] = system: HER2 (breast cancer), GBM (glioblastoma), and human monocytic leukemia; set-up: method as in PMID 15080622, PMID 24312561, PMID 28867321; settings: cancer cells, interrupting the G2-M phase; cited from earlier work
[12] = set-up: method as in doi:10.1007/s10068-014-0279-x; settings: cited from earlier work
[13] = system: macrophages; set-up: method as in doi:10.1007/s10068-014-0279-x; settings: cited from earlier work
[14] = system: HL-60 cells; set-up: method as in PMID 17360708; settings: by the accumulation of peroxides; cited from earlier work
[15] = system: human peripheral blood mononuclear cells; set-up: method as in PMID 17360708; settings: cited from earlier work

Structure (SMILES) | intracellular ROS level compared with control cells ([4]; HMEC-1, 24 h, 50-100 µM) | intracellular ROS level compared with control cells ([4]; HMEC-1, 48 h, 50-100 µM) | inhibitory activity on AAPH-induced intracellular ROS [1] | morphological index of induced echinocytes (Bessis scale) [6] | intracellular ROS level in comparison with control AAPH-oxidized cells [1] | cytotoxicity [3] | also measured
CC(C)(N=NC(C)(C)C(=N)N)C(=N)N.Cl.Cl [AAPH, 2,2′-azobis(2-amidinopropane) dihydrochloride, reference compound] | – | – | – | – | – | – | increase in the ROS level ([1]; HMEC-1, 24 h incubation with AAPH (7.5 mM), 37 °C): about 60%
Oc1cc(O)c2cc(O)c(-c3ccc(O)c(O)c3)[o+]c2c1 [C, Cyanidin] | significant decrease | decreased | does not cause any inhibitory activity | +4 | – | – | viability at 48 h, 100 µM [2]: 65 to 80%; viability of endothelial cells compared with the control [3]: decreased the viability; antioxidant activity compared with CG, CA, and CGA [5]: did not observe any significant differences; intracellular ROS levels [7]: decreased; percentage of apoptotic cells ([8]; 48 h at 0, 25, 50, and 100 μM): gradually increased; cell cycle arrest ([8]; independently of the concentration): induced cell cycle arrest; cell proliferation and apoptosis [9]: inhibition of cell proliferation and increased apoptosis
Oc1cc(O)c2cc(OC3OCC(O)C(O)C3O)c(-c3ccc(O)c(O)c3)[o+]c2c1 (stereo not drawn) [CA, cyanidin-3-O-arabinoside] | significant decrease | decreased | – | +2 | significant decrease | – | viability at 48 h, 100 µM [2]: 60 to 85%; viability of endothelial cells compared with the control [3]: decreased the viability; level of RBCs' protection relative to CR and CDG [5]: better protection
OCC1OC(Oc2cc3c(OC4OC(CO)C(O)C(O)C4O)cc(O)cc3[o+]c2-c2ccc(O)c(O)c2)C(O)C(O)C1O (stereo not drawn) [CDG, cyanidin-3-5-O-diglucoside] | significant decrease | decreased | strong inhibitory action | +1 | significant decrease | no cytotoxicity | protective effect against AAPH-induced oxidative stress ([1]; HMEC-1, 100 µM): protective effect
OCC1OC(Oc2cc3c(O)cc(O)cc3[o+]c2-c2ccc(O)c(O)c2)C(O)C(O)C1O (stereo not drawn) [CG, cyanidin-3-O-glucoside] | significant decrease | – | – | – | significant decrease | no cytotoxicity | intracellular ROS level compared with control cells ([4]; HMEC-1, 48 h, 100 µM): no significant difference; level of RBCs' protection relative to CR and CDG [5]: better protection; cell viability compared with control cells [10]: significantly decreased; intracellular ROS levels [7]: did not; cytotoxic effect (apoptosis) [11]: inducing apoptosis; nitrite scavenging activity compared with CR [12]: higher; protective effect against H2O2-induced cytotoxicity compared with CR [13]: stronger protective effect
OCC1OC(Oc2cc3c(O)cc(O)cc3[o+]c2-c2ccc(O)c(O)c2)C(O)C(O)C1O (stereo not drawn) [CGA, cyanidin-3-O-galactoside] | – | decreased | – | – | – | – | –
CC1OC(OCC2OC(Oc3cc4c(O)cc(O)cc4[o+]c3-c3ccc(O)c(O)c3)C(O)C(O)C2O)C(O)C(O)C1O (stereo not drawn) [CR, cyanidin-3-O-rutinoside] | did not differ | no significant difference | does not cause any inhibitory activity | +1 | – | no cytotoxicity | cell viability compared with control cells [10]: significantly decreased; apoptosis [14]: induce apoptosis; toxicity [15]: relatively low toxicity
